Target: T1, hFXR (Homo sapiens, UniProt Q96RI1)
T1 construct: expressed in transfected cells; host or cells: CV-1 cells
T1 sequence (Q96RI1 1-486): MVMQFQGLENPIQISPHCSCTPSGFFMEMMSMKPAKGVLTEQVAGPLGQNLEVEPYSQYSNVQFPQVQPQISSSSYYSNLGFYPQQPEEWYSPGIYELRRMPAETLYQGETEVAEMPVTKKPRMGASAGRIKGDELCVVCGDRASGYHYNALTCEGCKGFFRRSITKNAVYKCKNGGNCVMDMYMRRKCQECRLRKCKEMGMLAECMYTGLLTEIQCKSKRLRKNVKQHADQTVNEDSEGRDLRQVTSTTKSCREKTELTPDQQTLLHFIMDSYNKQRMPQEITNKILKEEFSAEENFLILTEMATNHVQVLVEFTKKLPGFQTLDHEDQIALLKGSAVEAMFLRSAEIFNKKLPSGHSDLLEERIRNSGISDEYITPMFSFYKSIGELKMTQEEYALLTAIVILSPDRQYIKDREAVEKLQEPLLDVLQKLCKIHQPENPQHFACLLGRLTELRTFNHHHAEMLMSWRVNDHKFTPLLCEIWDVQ
T1 sequence (P19793 1-462 partner): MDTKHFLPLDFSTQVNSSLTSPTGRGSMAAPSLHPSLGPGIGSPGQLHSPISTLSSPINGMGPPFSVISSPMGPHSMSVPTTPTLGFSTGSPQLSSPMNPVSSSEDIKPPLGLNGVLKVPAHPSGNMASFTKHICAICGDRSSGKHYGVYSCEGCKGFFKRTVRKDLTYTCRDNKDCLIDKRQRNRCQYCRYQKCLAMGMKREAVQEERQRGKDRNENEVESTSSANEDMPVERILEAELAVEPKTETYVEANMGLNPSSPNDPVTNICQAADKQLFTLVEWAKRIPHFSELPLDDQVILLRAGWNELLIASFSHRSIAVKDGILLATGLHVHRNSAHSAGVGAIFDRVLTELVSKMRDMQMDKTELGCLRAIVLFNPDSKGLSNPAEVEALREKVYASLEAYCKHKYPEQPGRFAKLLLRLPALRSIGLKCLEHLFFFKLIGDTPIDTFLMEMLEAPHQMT
Experiment: In Vitro FXR Assay (TK): TK-ECRE-luc reporter in transfected CV-1 cells
Type: cell-based
Conditions: 18 hrs, luminescence, maximum efficacy of <25% of the Fexarmine control classified as '+'
Procedure, shortened: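 CV-1 cells transiently co-transfected with hFXR, hRXR, TK-ECRE-luc and pCMX-YFP plasmids in charcoal-stripped serum medium. Serially diluted compounds added, cells incubated 18 h at 37° C, then lysed and luminescence read.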

Row | SMILES | EC50
1 | COc1ccc([C@H]2CC[C@H](CN(c3cccc(-c4cnn(C5CC5)c4)c3)C(=O)[C@H]3CC[C@H](OC(=O)N4CC[S+]([O-])CC4)CC3)CC2)cc1C [Compound 7.29, trans-4-((3-(1-Cyclopropyl-1H-pyrazol-4-yl)phenyl)((trans-4-(4-methoxy-3-methylphenyl)cyclohexyl)methyl)carbamoyl)cyclohexyl thiomorpholine-4-carboxylate 1-oxide] | ≤ 250 nM
2 | COc1ccc([C@H]2CC[C@H](CN(c3cc(-c4coc(C(C)C)n4)ccn3)C(=O)[C@H]3CC[C@H](OC(=O)N4CC(S(C)(=O)=O)C4)CC3)CC2)nc1C [Compound 6.75, trans-4-((4-(2-Isopropyloxazol-4-yl)pyridine-2-yl)((trans-4-(5-methoxy-6-methylpyridin-2-yl)cyclohexyl)methyl)carbamoyl)cyclohexyl 3-(methylsulfonyl)azetidine-1-carboxylate] | ≤ 250 nM
3 | COc1ccc([C@H]2CC[C@H](CN(c3cc(-c4cnn(C(C)C)c4)ccn3)C(=O)[C@H]3CC[C@H](OC(=O)N4CCN(C)CC4)CC3)CC2)cc1C#N [Compound 6.38, trans-4-(((trans-4-(3-Cyano-4-methoxyphenyl)cyclohexyl)methyl)(4-(1-isopropyl-1H-pyrazol-4-yl)pyridin-2-yl)carbamoyl)cyclohexyl 4-methylpiperazine-1-carboxylate] | ≤ 250 nM
4 | CCC1CN(C(=O)O[C@H]2CC[C@H](C(=O)N(C[C@H]3CC[C@H](c4ccc(OC)c(C)n4)CC3)c3cc(-c4coc(C5CC5)n4)ccn3)CC2)C1 [Compound 7.90, trans-4-((4-(2-Cyclopropyloxazol-4-yl)pyridine-2-yl)((trans-4-(5-methoxy-6-methylpyridin-2-yl)cyclohexyl)methyl)carbamoyl)cyclohexyl 3-ethylazetidine-1-carboxylate] | ≤ 250 nM
5 | COc1ccc([C@H]2CC[C@H](CN(c3cc(-c4cnn(C(C)C)c4)ccn3)C(=O)[C@H]3CC[C@H](OC(=O)N4CC(OC(C)C)C4)CC3)CC2)cc1C#N [Compound 7.49, trans-4-(((trans-4-(3-Cyano-4-methoxyphenyl)cyclohexyl)methyl)(4-(1-isopropyl-1H-pyrazol-4-yl)pyridin-2-yl)carbamoyl)cyclohexyl 3-isopropoxyazetidine-1-carboxylate] | ≤ 250 nM
6 | COc1ccc([C@H]2CC[C@H](CN(c3cccc(-c4cnn(C(C)C)c4)c3)C(=O)[C@H]3CC[C@H](OC(=O)NCCO)CC3)CC2)cc1C#N [Compound 6.20, trans-4-(((trans-4-(3-Cyano-4-methoxyphenyl)cyclohexyl)methyl)(3-(1-isopropyl-1H-pyrazol-4-yl)phenyl)carbamoyl)cyclohexyl (2-hydroxyethyl)carbamate] | ≤ 250 nM
7 | COc1ccc([C@H]2CC[C@H](CN(c3cccc(-c4cnc(C5CC5)s4)c3)C(=O)[C@H]3CC[C@H](OC(=O)N4CC(O)C4)CC3)CC2)cc1C [Compound 7.02, trans-4-((3-(2-Cyclopropylthiazol-5-yl)phenyl)((trans-4-(4-methoxy-3-methylphenyl)cyclohexyl)methyl)carbamoyl)cyclohexyl 3-hydroxyazetidine-1-carboxylate] | ≤ 250 nM
8 | COc1ncc([C@H]2CC[C@H](CN(c3cc(-c4coc(C5CC5)n4)ccn3)C(=O)[C@H]3CC[C@H](OC(=O)N4CC(OC)C4)CC3)CC2)cc1C [Compound 7.93, trans-4-((4-(2-Cyclopropyloxazol-4-yl)pyridine-2-yl)((trans-4-(6-methoxy-5-methylpyridin-3-yl)cyclohexyl)methyl)carbamoyl)cyclohexyl 3-methoxyazetidine-1-carboxylate] | ≤ 250 nM
9 | COc1ccc([C@H]2CC[C@H](CN(c3cccc(-c4cnc(C5CC5)s4)c3)C(=O)[C@H]3CC[C@H](CC(=O)O)CC3)CC2)cc1C#N [Compound 20, 2-(trans-4-(((trans-4-(3-Cyano-4-methoxyphenyl)cyclohexyl)methyl)(3-(2-cyclopropylthiazol-5-yl)phenyl)carbamoyl)cyclohexyl)acetic acid] | ≤ 250 nM
10 | CN(C)c1ccc([C@H]2CC[C@H](CN(c3cccc(-c4cnn(C5CC5)c4)c3)C(=O)[C@H]3CC[C@H](OC(=O)N4CC(O)C4)CC3)CC2)cn1 [Compound 7.13, trans-4-((3-(1-Cyclopropyl-1H-pyrazol-4-yl)phenyl)((trans-4-(6-(dimethylamino)pyridin-3-yl)cyclohexyl)methyl)carbamoyl) cyclohexyl 3-hydroxyazetidine-1-carboxylate] | ≤ 250 nM
11 | COc1ccc([C@H]2CC[C@H](CN(c3cc(-c4cnc(C(C)C)s4)ccn3)C(=O)[C@H]3CC[C@H](OC(=O)N4CC(O)C4)CC3)CC2)cc1C [Compound 7.04, trans-4-((4-(2-Isopropylthiazol-5-yl)pyridin-2-yl)((trans-4-(4-methoxy-3-methylphenyl)cyclohexyl)methyl)carbamoyl)cyclohexyl 3-hydroxyazetidine-1-carboxylate] | ≤ 250 nM
12 | COc1ncc([C@H]2CC[C@H](CN(c3cccc(-c4cnn(C5CC5)c4)c3)C(=O)[C@H]3CC[C@H](OC(=O)N4CC(O)C4)CC3)CC2)cc1Cl [Compound 7.23, trans-4-(((trans-4-(5-Chloro-6-methoxypyridin-3-yl)cyclohexyl)methyl)(3-(1-cyclopropyl-1H-pyrazol-4-yl)phenyl)carbamoyl) cyclohexyl 3-hydroxyazetidine-1-carboxylate] | ≤ 250 nM
13 | CNC(=O)O[C@H]1CC[C@H](C(=O)N(CC23CCC(c4ccc(N(C)C)nc4)(CC2)CC3)c2cccc(-c3cnc(C4CC4)s3)c2)CC1 [Compound 1.02, 4-((3-(2-Cyclopropylthiazol-5-yl)phenyl)((4-(6-(dimethylamino)pyridin-3-yl)bicyclo[2.2.2]octan-1-yl)methyl)carbamoyl)cyclohexyl trans-methylcarbamate] | ≤ 250 nM
14 | COc1ccc([C@H]2CC[C@H](CN(c3cc(-c4coc(C5CC5)n4)ccn3)C(=O)[C@H]3CC[C@H](OC(=O)N4CC(CO)C4)CC3)CC2)nc1C [Compound 7.80, trans-4-(4-(2-Cyclopropyloxazol-4-yl)pyridine-2-yl)((trans-4-(5-methoxy-6-methylpyridin-2-yl)cyclohexyl)methyl) carbamoyl)cyclohexyl 3-(hydroxymethyl)azetidine-1-carboxylate] | ≤ 250 nM

Next, values leading:

Row | EC50 | SMILES
15 | ≤ 250 nM | COC(=O)NC[C@H]1CC[C@H](C(=O)N(C[C@H]2CC[C@H](c3ccc(OC)c(C)c3)CC2)c2cccc(-c3cnn(C4CC4)c3)c2)CC1 [Compound 26.14, Methyl ((trans-4-((3-(1-cyclopropyl-1H-pyrazol-4-yl)phenyl)((trans-4-(4-methoxy-3-methylphenyl)cyclohexyl)methyl)carbamoyl)cyclohexyl)methyl)carbamate]
16 | ≤ 250 nM | COc1ccc(C23CCC(CN(c4cccc(-c5cnn(C6CC6)c5)c4)C(=O)[C@H]4CC[C@H](NC(C)=O)CC4)(CC2)CC3)cc1C [Compound 26.07, trans-4-Acetamido-N-(3-(1-cyclopropyl-1H-pyrazol-4-yl)phenyl)-N-((4-(4-methoxy-3-methylphenyl)bicyclo[2.2.2]octan-1-yl)methyl)cyclohexanecarboxamide]
17 | ≤ 250 nM | COc1ccc([C@H]2CC[C@H](CN(c3cccc(-c4cnn(C5CC5)c4)c3)C(=O)[C@H]3CC[C@H](CC(=O)O)CC3)CC2)cc1C [Compound 20.09, 2-(trans-4-((3-(1-Cyclopropyl-1H-pyrazol-4-yl)phenyl)((trans-4-(4-methoxy-3-methylphenyl)cyclohexyl)methyl)carbamoyl)cyclohexyl)acetic acid]
18 | ≤ 250 nM | CN(C)c1ccc([C@H]2CC[C@H](CN(c3cccc(-c4coc(C5CC5)n4)c3)C(=O)[C@H]3CC[C@H](CC(=O)O)CC3)CC2)cn1 [Compound 21.06, 2-(trans-4-((3-(2-Cyclopropyloxazol-4-yl)phenyl)((trans-4-(6-(dimethylamino)pyridin-3-yl)cyclohexyl)methyl)carbamoyl)cyclohexyl) acetic acid]
19 | ≤ 250 nM | COc1ccc([C@H]2CC[C@H](CN(c3cccc(-c4cnc(C5CC5)s4)c3)C(=O)[C@H]3CC[C@H](NC(=O)Cc4ncc[nH]4)CC3)CC2)cc1C [Compound 27.04, trans-4-(2-(1H-Imidazol-2-yl)acetamido)-N-(3-(2-cyclopropylthiazol-5-yl)phenyl)-N-((trans-4-(4-methoxy-3-methylphenyl)cyclohexyl)methyl)cyclohexanecarboxamide]
20 | ≤ 250 nM | COc1ccc([C@H]2CC[C@H](CN(c3cc(-c4coc(C(C)C)n4)ccn3)C(=O)[C@H]3CC[C@H](CC(=O)O)CC3)CC2)cc1C [Compound 21.09, 2-(trans-4-((4-(2-Isopropyloxazol-4-yl)pyridin-2-yl)((trans-4-(4-methoxy-3-methylphenyl)cyclohexyl)methyl)carbamoyl)cyclohexyl)acetic acid]
